Patent US20220030868A1, “FUNGICIDAL HALOMETHYL KETONES AND HYDRATES” (FMC CORPORATION, priority 2018, published 2022)

Assays:
[1] = test system: Phakopsora pachyrhizi; assay: Test A: test suspension sprayed on soybean seedlings one day before inoculation with Phakopsora pachyrhizi spores (Asian soybean rust), visual disease rating; type: in vivo; settings: 100 = 100% disease control, 0 = no control
Excerpt: General protocol for preparing test suspensions for Tests A-C: the test compounds were first dissolved in acetone in an amount equal to 3% of the final volume and then suspended at the desired concentration (in ppm) in acetone and purified water (50/50 mix by volume) containing 250 ppm of the surfactant PEG400 (polyhydric alcohol esters). The resulting test suspensions were then used in Tests A-C.
The test solution was sprayed to the point of run-off on soybean seedlings. The following day the seedlings were inoculated with a spore suspension of Phakopsora pachyrhizi (the causal agent of Asian soybean rust) and incubated in a saturated atmosphere at 22° C. for 24 h, and then moved to a growth chamber at 22° C. for 8 days, after which time visual disease ratings were made.
Results for Tests A-C are given in Table A. In the Table, a rating of 100 indicates 100% disease control and a rating of 0 indicates no disease control (relative to the controls). An asterisk “*” or a double asterisk “**” next to the rating value indicates a 50 ppm or 10 ppm test suspension was used, respectively. A dash (-) indicates the compound was not tested.

[2] = test system: Puccinia recondita f. sp. tritici; assay: Test B: test suspension sprayed on wheat seedlings one day before inoculation with Puccinia recondita f. sp. tritici spores (wheat leaf rust), disease rating; type: in vivo; settings: 100 = 100% disease control, 0 = no control
Excerpt: General protocol for preparing test suspensions for Tests A-C: the test compounds were first dissolved in acetone in an amount equal to 3% of the final volume and then suspended at the desired concentration (in ppm) in acetone and purified water (50/50 mix by volume) containing 250 ppm of the surfactant PEG400 (polyhydric alcohol esters). The resulting test suspensions were then used in Tests A-C. The test solution was sprayed to the point of run-off on wheat seedlings. The following day the seedlings were inoculated with a spore suspension of Puccinia recondita f. sp. tritici (the causal agent of wheat leaf rust) and incubated in a saturated atmosphere at 20° C. for 24 h, and then moved to a growth chamber at 20° C. for 6 days, after which time disease ratings were made. Results for Tests A-C are given in Table A. In the Table, a rating of 100 indicates 100% disease control and a rating of 0 indicates no disease control (relative to the controls). An asterisk “*” or a double asterisk “**” next to the rating value indicates a 50 ppm or 10 ppm test suspension was used, respectively. A dash (-) indicates the compound was not tested.

SMILES	Test A rating (disease control) ([1]; 10 ppm test suspension) [%]	Test B rating (disease control) ([2]; 10 ppm test suspension) [%]	further results
CCOC(=O)C1=NOC(Cc2ccc(OC=C(OCC)C(F)(F)F)cc2)C1 (mixture of isomers) [compound 287]			Test A rating (disease control) ([1]; 50 ppm test suspension): 77%; Test B rating (disease control) ([2]; 50 ppm test suspension): 0%
CCOC(=COc1ccc(CC2CC(C(=O)N(C)C)=NO2)cc1)C(F)(F)F (mixture of isomers) [compound 288]			Test A rating (disease control) ([1]; 50 ppm test suspension): 96%; Test B rating (disease control) ([2]; 50 ppm test suspension): 0%
CCOC(=COc1ccc(CN2CCC(C(=O)OC)C2)cc1)C(F)(F)F (mixture of isomers) [compound 310]	100	0	
CCOC(=O)c1cnn(Cc2ccc(OCC(O)(O)C(F)(F)F)cc2)c1 [Compound 1, ethyl 1-[[4-(3,3,3-trifluoro-2,2-dihydroxypropoxy)phenyl]methyl]-1H-pyrazole-4-carboxylate]			pest or weed control at 250 ppm ([1]; Phakopsora pachyrhizi, 250 ppm test suspension): 100%; pest or weed control at 250 ppm ([2]; 250 ppm test suspension): 91%
OC(O)(COc1ccc(OCC(O)(O)C(F)(F)F)cc1)C(F)(F)F [Compound 2]	77	32	
CCOC(=O)c1cnn(Cc2ccc(OC(C)C(O)(O)C(F)(F)F)cc2)c1 (stereo not drawn) [Compound 5]	0	0	
CCOC(=O)c1cnn(Cc2ccc(OCC(O)(NO)C(F)(F)F)cc2)c1 (stereo not drawn) [Compound 10]	100	86	
CCOC(=O)c1cnn(Cc2ccc(OCC3(C(F)(F)F)OCC(C)(C)O3)cc2)c1 (stereo not drawn) [Compound 12, ethyl 1-[[4-[[4,4-dimethyl-2-(trifluoromethyl)-1,3-dioxolan-2-yl]methoxy]-phenyl]methyl]-1H-pyrazole-4-carboxylate]			pest or weed control at 10 ppm ([1]; Phakopsora pachyrhizi, 10 ppm test suspension): 13%; pest or weed control at 10 ppm ([2]; 10 ppm test suspension): 0%
CCOC(=O)c1cnn(Cc2ccc(OCC3(C(F)(F)F)OC(=O)CS3)cc2)c1 (stereo not drawn) [Compound 20]	98	86	
CCOC(=O)c1cnn(Cc2ccc(OCC3(C(F)(F)F)NCCO3)cc2)c1 (stereo not drawn) [Compound 21]	84	23	
CCS(=O)(=O)Cc1ccc(OCC(O)(O)C(F)(F)F)cc1 [Compound 29]	84	28	
OC(O)(CCc1ccc(Cn2ccc3ccccc32)cc1)C(F)(F)F [Compound 30]	0	0	
CS(=O)(=O)c1ccc(OCC(O)(O)C(F)(F)F)cc1 [Compound 31]	44	93	
COC(=O)NN=Cc1ccc(OCC(O)(O)C(F)(F)F)cc1 [Compound 33]	96	86	
CN(C)S(=O)(=O)c1ccc(OCC(O)(O)C(F)(F)F)cc1 [Compound 34]	0	80	
CCOC(=O)c1cnn(C(C)c2ccc(OCC(O)(O)C(F)(F)F)cc2)c1 (stereo not drawn) [Compound 35]	99	32	
O=C(NCC1CC1)c1cnn(Cc2ccc(OCC(O)(O)C(F)(F)F)cc2)c1 [Compound 36]	70	0	
COC(=O)c1cnn(Cc2ccc(OCC(O)(O)C(F)(F)F)cc2)c1 [Compound 37]	99	86	
C=CC(F)(F)OC(=O)c1cnn(Cc2ccc(OCC(O)(O)C(F)(F)F)cc2)c1 [Compound 38]	97	89	
CC(C)OC(=O)c1cnn(Cc2ccc(OCC(O)(O)C(F)(F)F)cc2)c1 [Compound 39]	91	79	
C=C(C)COC(=O)c1cnn(Cc2ccc(OCC(O)(O)C(F)(F)F)cc2)c1 [Compound 40]	91	68	
CN(C)C(=O)C1=NOC(c2ccc(OCC(O)(O)C(F)(F)F)cc2)C1 (stereo not drawn) [Compound 41]	92	23	
CCCOC(=O)c1cnn(Cc2ccc(OCC(O)(O)C(F)(F)F)cc2)c1 [Compound 42]	99	85	
C=CCOC(=O)c1cnn(Cc2ccc(OCC(O)(O)C(F)(F)F)cc2)c1 [Compound 43]	96	60	

SMILES	Test A rating (disease control) ([1]; 10 ppm test suspension) [%]	Test B rating (disease control) ([2]; 10 ppm test suspension) [%]	further results
C#CCOC(=O)c1cnn(Cc2ccc(OCC(O)(O)C(F)(F)F)cc2)c1 [Compound 44]	97	85	
O=C(OCC(F)(F)F)c1cnn(Cc2ccc(OCC(O)(O)C(F)(F)F)cc2)c1 [Compound 45]	87	85	
O=C(OCC(F)(F)C(F)(F)F)c1cnn(Cc2ccc(OCC(O)(O)C(F)(F)F)cc2)c1 [Compound 46]	64	85	
O=C(OCc1ccccc1)c1cnn(Cc2ccc(OCC(O)(O)C(F)(F)F)cc2)c1 [Compound 47]			Test A rating (disease control) ([1]; 50 ppm test suspension): 100%; Test B rating (disease control) ([2]; 50 ppm test suspension): 95%
CCCCCCOC(=O)c1cnn(Cc2ccc(OCC(O)(O)C(F)(F)F)cc2)c1 [Compound 48]			Test A rating (disease control) ([1]; 50 ppm test suspension): 100%; Test B rating (disease control) ([2]; 50 ppm test suspension): 91%
O=C(OCc1ccc(Cl)c(Cl)c1)c1cnn(Cc2ccc(OCC(O)(O)C(F)(F)F)cc2)c1 [Compound 49]	0	86	
O=C(OCc1ccc(F)c(F)c1)c1cnn(Cc2ccc(OCC(O)(O)C(F)(F)F)cc2)c1 [Compound 50]	54	91	
CCOC(=O)c1cnn(Cc2ccc(C(O)CC(O)(O)C(F)(F)F)cc2)c1 (stereo not drawn) [Compound 51]	0	0	
CCOC(=O)c1cnn(Cc2ccc(OCC3(C(F)(F)F)OCCCO3)cc2)c1 [Compound 52]	99	0	
CCOC(=O)c1cnn(Cc2ccc(CCC(O)(O)C(F)(F)F)cc2)c1 [Compound 66]			Test A rating (disease control) ([1]; 50 ppm test suspension): 92%; Test B rating (disease control) ([2]; 50 ppm test suspension): 89%
O=C(NCC(F)(F)F)c1csc(Cc2ccc(OCC(O)(O)C(F)(F)F)cc2)n1 [Compound 68]	100	95	
O=C(NCC1CC1)c1csc(Cc2ccc(OCC(O)(O)C(F)(F)F)cc2)n1 [Compound 69]	98	96	
O=C(NCC(F)(F)F)c1csc(Cc2ccc(OCC3(C(F)(F)F)OCCO3)cc2)n1 [Compound 70]			Test A rating (disease control) ([1]; 250 ppm test suspension): 100%; Test B rating (disease control) ([2]; 250 ppm test suspension): 100%
CC(=O)c1ccc(OCC(O)(O)C(F)(F)F)cc1 [Compound 80]			Test A rating (disease control) ([1]; 50 ppm test suspension): 99%; Test B rating (disease control) ([2]; 50 ppm test suspension): 100%
CCO/C(=C\Oc1ccc(Cn2ncnc2C#N)cc1)C(F)(F)F [Compound 81]	0	0	
CCO/C(=C\Oc1ccc(Cn2cnc(C#N)n2)cc1)C(F)(F)F [Compound 82]	97	0	
CCOC(=O)C=CCOc1ccc(OCC(O)(O)C(F)(F)F)cc1 [Compound 97]			Test A rating (disease control) ([1]; 50 ppm test suspension): 94%; Test B rating (disease control) ([2]; 50 ppm test suspension): 0%
CCO/C(=C\Oc1ccc(Cn2ncnc2C(=O)OC)cc1)C(F)(F)F [Compound 122]	0	0	
CCO/C(=C\Oc1ccc(Cn2cnc(C(=O)OC)n2)cc1)C(F)(F)F [Compound 123]	98	0	
CCOC(=O)c1cnn(CCc2ccc(OCC(O)(O)C(F)(F)F)cc2)c1 [Compound 131]			Test A rating (disease control) ([1]; 50 ppm test suspension): 99%; Test B rating (disease control) ([2]; 50 ppm test suspension): 86%
O=C(c1csc(Cc2ccc(OCC(O)(O)C(F)(F)F)cc2)n1)N1CCC(F)(F)C1 [Compound 135]	86	61	
CCOC(=O)c1csc(Cc2ccc(OCC(O)(O)C(F)(F)F)cc2)n1 [Compound 136]	98	83	
CCOC(=O)c1csc(Cc2ccc(OCC3(C(F)(F)F)OCCO3)cc2)n1 [Compound 137]	79	0	
N#Cc1ccc(OCC(O)(O)C(F)(F)F)cc1 [Compound 142]	92	100	
